From patent US6441237B1, “Substituted 3-phenoxy- and 3-phenylalkyloxy-2-phenyl-propylamines” (Boehringer Ingelheim Pharma KG, priority 1999, dated 2002) come the findings set out here.

As a reminder, the melting point is the temperature, or range, at which the solid turns liquid.

For `Br.Cc1cccc(C)c1C(CNC(C)C)COCc1ccccc1F` (stereo not drawn), the melting point worked out at 111 °C.
The value for `C=C(C)CN(C)CC(c1c(C)cccc1C)C(OC)c1c(F)cccc1F.O=C(O)C(=O)O` (stereo not drawn) was 128 °C; that for `C#CCNCC(COCc1ccccc1F)c1c(C)cccc1C.Cl` (stereo not drawn) was 112 °C.
For `COCCNCC(COCc1c(F)cccc1F)c1c(C)cccc1C.Cl` (stereo not drawn), the melting point was 128 °C.
The compound `CCCNCC(COCc1ccccc1F)c1c(C)cccc1C.Cl` (stereo not drawn) gave a melting point of 100 °C.
As for `Cc1cccc(C)c1C(CNC(C)C)COCc1ccccc1F.Cl` (stereo not drawn), the melting point worked out at 123 °C.
In the case of `Cc1cccc(C)c1C(CNC1CCCC1)COCc1ccccc1F.Cl` (stereo not drawn), the melting point is 102 °C.
`Br.Cc1cccc(C)c1C(CNCC1CCCO1)COCc1c(F)cccc1F` (stereo not drawn) returned a melting point of 149 °C.
For the compound `CCCNCC(COCc1c(F)cccc1F)c1c(C)cccc1C.Cl` (stereo not drawn), the melting point is 142 °C.
The value for `Br.CCCN(CCC)CC(COCc1c(F)cccc1F)c1c(C)cccc1C` (stereo not drawn) was 143 °C.
With `Cc1cccc(C)c1C(CNC(C)C)COCc1c(F)cccc1F.Cl` (stereo not drawn) the figure was 138 °C.
Turning to `Cc1cccc(C)c1C(CNCC(C)C)COCc1c(F)cccc1F.Cl` (stereo not drawn), the melting point came to 119 °C.
The value for `Cc1cccc(C)c1C(CNC1CCCC1)COCc1c(F)cccc1F.Cl` (stereo not drawn) was 130 °C.
On to `Cc1cccc(C)c1C(COCc1c(F)cccc1F)CN(C)C.Cl` (stereo not drawn), for which the melting point came to 144 °C.
Regarding `Cc1cccc(C)c1C(CNCC1CC1)COCc1c(F)cccc1F.Cl` (stereo not drawn), the melting point came out at 145 °C.
The compound `COCCNCC(COCc1ccccc1F)c1c(C)cccc1C.Cl` (stereo not drawn) came in with a melting point of 77 °C.
Consider `Cc1cccc(C)c1C(CNCC1CC1)COCc1c(F)cccc1Cl.Cl` (stereo not drawn), for which the melting point stood at 154 °C.
With `Cc1cccc(C)c1COCC(CNCC1CC1)c1c(C)cccc1C.Cl` (stereo not drawn) the figure was 142 °C; with `Br.Cc1cccc(C)c1C(CNCC1CC1)COCc1ccccc1F` (stereo not drawn), 101 °C.
With `Cc1cccc(C)c1C(CNCC1CC1)COCc1ccccc1F.Cl` (stereo not drawn) the figure was 101 °C; with `Cc1cccc(C)c1C(CNCC1CCC1)COCc1ccccc1F.Cl` (stereo not drawn), 191 °C.
`C#CCNCC(COCc1c(F)cccc1F)c1c(C)cccc1C.Cl` (stereo not drawn) [8.9] returned a melting point of 124 °C.
On to `C#CCNCC(COCc1c(F)cccc1F)c1c(C)cccc1C.Cl` (stereo not drawn) [8.12], for which the melting point was found to be 145 °C.
`C=CCN(C)CC(c1c(C)cccc1C)C(OC)c1c(F)cccc1F.Cl` (stereo not drawn) [11.55] returned a melting point of 116 °C.
